From patent publication US20250145600A1, “2-((4-((S)-2-(4-CHLORO-2-FLUOROPHENYL)-2-METHYLBENZO[D][1,3]DIOXOL-4-YL)PIPERIDIN-1-YL)METHYL)-1-(((S)-OXETAN-2-YL)METHYL)-1H-IMIDAZOLE DERIVATIVES AS ACTIVATORS OF THE GLP1 RECEPTOR FOR THE TREATMENT OF OBESITY” (Novartis AG, priority 2022, published 2025)

Target: human GLP1R (Homo sapiens, UniProt P43220)
Experiment: Human GLP1R DERET internalization assay
Type: cell-based
Settings: HEK293-SNAP-hGLP1R-GloSensor cells; for EC50: top concentration 30 μM; for Emax: relative to GLP1(7-36)
Description: Compounds of formula (I) according to the invention were tested in the following cellular assays that measure the intracellular cAMP concentration, beta-arrestin recruitment and receptor internalization. The cAMP is generated by the activation of GLP1R. The extent to which the GLP1R is internalized into the cell and away from the plasma membrane following activation is also shown in Table 2. EC50 for each assay is defined as the concentration of the compound that leads to half of the maximum response (after baseline correction). Emax is defined as the maximum response observed for the test compound, normalized to the maximum response observed for the endogenous ligand (GLP1(7-36)) to GLP1R.
Human GLP1R DERET Internalization Assay
The extent to which agonists internalize the human GLP1R was determined based on an optimized version of a RealTime FRET-based ‘DERET’ (Dissociation Enhanced Resonance Energy Transfer) assay. The technology relies on labeling of the SNAP-tagged GPCR with a SNAP-Lumi-Terbium (donor fluorophore, Cisbio, cat #SSNPTBD). The compounds are incubated with the cells over-expressing the GPCR of interest in the presence of an excess of fluorescein (acceptor fluorophore). When the GPCR is on the cell surface, the donor signal is quenched by the acceptor and the donor/acceptor ratio is low. As the GPCR internalizes, the donor signal is no longer quenched, and the acceptor is no longer excited so the donor/acceptor ratio increases.
HEK293-SNAP-hGLP1R-GloSensor cells (stably overexpressing SNAP-tagged hGLP1R) were seeded overnight in white 384-well poly-D-Lysine coated plates (Greiner Bio One, cat #781945) in regular DMEM growth medium (Gibco, cat #11965-092, 10% heat-inactivated FBS, 10 mM HEPES, 1× penicillin/streptomycin, 0.5 mg/mL geneticin (Gibco, cat #10131-035) and 0.25 mg/mL hygromycin B (Invitrogen, cat #10687010). On the assay day, cell medium was removed and 100 nM SNAP-Lumi-Tb reagent was added in Opti-MEM solution. The cells were incubated at 37° C. for 1 h. Cells were washed using a plate washer in assay buffer [1×HBSS (10× Gibco, cat #14065-056), 20 mM Hepes (Gibco, cat #15630-080), 1 mM CaCl2 (Fluka, cat #21114-1L), 1 mM MgCl2 (Ambion, cat #AM9530G) pH7.4], and 20 μL buffer with 0.1% BSA was added to each well. After leaving cells to equilibrate for […] at 37° C., 10 μL of Fluorescein (sodium salt, Sigma, cat #F6377, diluted in buffer) was added at 25 μM final concentration. To generate triplicate dose response curves, compounds were serially diluted 3-fold in assay buffer, then added to the cell assay plate to a final volume of 40 μL and final top concentrations starting at 30 μM. In the same plate and assay buffer as the tested compounds, a GLP1 (7-36) peptide (Bachem, cat #H-6795) control curve was included at a final top concentration of 1 μM in order to establish EC100. EC0 wells with buffer only were also included. The plate FRET fluorescence was measured immediately using a Perkin Elmer Envision with LANCE/DELFIA D400 single mirror, excitation filter X320, and emission filters M615_203 (donor emission) and M515 (acceptor emission), and then measured every 30 min. […] Plates were kept at 37° C. between reads. Data was expressed as the ratio of donor/acceptor emissions using Microsoft Excel and plotted in GraphPad Prism. In order to determine EC50 and Emax for internalization, data was calculated and expressed as percent of the GLP1 (7-36) EC100 control wells: [(sample signal−mean EC0 signal)/(mean EC100 of GLP1 (7-36) signal−mean EC0 signal)]*100 using Microsoft Excel. Curve fitting for EC50 determinations was performed using GraphPad Prism. The 4-parameter logistic model, Hill slope was used:
where Y is the functional response; X is the compound concentration; bottom is A0 or the minimum value (at 0 dose); top is Ainf or the maximum value (at infinite dose); EC50 is the point of inflection (i.e. the point on the sigmoid shaped curve halfway between A0 and Ainf). […]

Chain of human GLP1R (P43220 24-463): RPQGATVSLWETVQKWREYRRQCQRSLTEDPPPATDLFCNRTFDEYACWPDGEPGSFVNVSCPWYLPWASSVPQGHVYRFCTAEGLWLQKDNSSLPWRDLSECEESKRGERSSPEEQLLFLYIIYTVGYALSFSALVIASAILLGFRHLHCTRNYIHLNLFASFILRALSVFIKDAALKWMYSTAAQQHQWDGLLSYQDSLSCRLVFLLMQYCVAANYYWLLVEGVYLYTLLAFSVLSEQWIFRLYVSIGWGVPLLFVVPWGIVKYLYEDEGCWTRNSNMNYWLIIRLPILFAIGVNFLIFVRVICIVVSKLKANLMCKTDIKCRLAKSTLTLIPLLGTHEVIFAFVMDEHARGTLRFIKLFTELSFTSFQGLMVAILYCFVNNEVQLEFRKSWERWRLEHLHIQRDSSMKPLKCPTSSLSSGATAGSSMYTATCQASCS

Row | Structure (SMILES) | EC50 [µM] | Emax [%]
1 | CCc1nc(CN2CCC(c3cccc4c3O[C@@](C)(c3ccc(Cl)cc3F)O4)CC2)n(C[C@@H]2CCO2)c1-c1nc(C(=O)O)co1 [Compound C-5, 2-(2-((4-((S)-2-(4-chloro-2-fluorophenyl)-2-methylbenzo[d][1,3]dioxol-4-yl)piperidin-1-yl)methyl)-4-ethyl-1-(((S)-oxetan-2-yl)methyl)-1H-imidazol-5-yl)oxazole-4-carboxylic acid] | > 30 | 6
2 | Cc1c(-c2nc(C(F)(F)F)c(C(=O)O)o2)nc(CN2CCC(c3cccc4c3O[C@@](C)(c3ccc(Cl)cc3F)O4)CC2)n1C[C@@H]1CCO1 [Compound C-14, 2-(2-((4-((S)-2-(4-chloro-2-fluorophenyl)-2-methylbenzo[d][1,3]dioxol-4-yl)piperidin-1-yl)methyl)-5-methyl-1-(((S)-oxetan-2-yl)methyl)-1H-imidazol-4-yl)-4-(trifluoromethyl)oxazole-5-carboxylic acid] | > 30 | 20
3 | Cc1nc(CN2CCC(c3cccc4c3O[C@@](C)(c3ccc(Cl)cc3F)O4)CC2)n(C[C@@H]2CCO2)c1-c1nc(C(=O)O)co1 [Compound C-9, 2-(2-((4-((S)-2-(4-chloro-2-fluorophenyl)-2-methylbenzo[d][1,3]dioxol-4-yl)piperidin-1-yl)methyl)-4-methyl-1-(((S)-oxetan-2-yl)methyl)-1H-imidazol-5-yl)oxazole-4-carboxylic acid] | > 30 | 11
4 | Cc1c(-c2cnc(C(=O)O)o2)nc(CN2CCC(c3cccc4c3O[C@@](C)(c3ccc(Cl)cc3F)O4)CC2)n1C[C@@H]1CCO1 [Compound C-16, 5-(2-((4-((S)-2-(4-chloro-2-fluorophenyl)-2-methylbenzo[d][1,3]dioxol-4-yl)piperidin-1-yl)methyl)-5-methyl-1-(((S)-oxetan-2-yl)methyl)-1H-imidazol-4-yl)oxazole-2-carboxylic acid] | 2.94 | 50
5 | Cc1nc(CN2CCC(c3cccc4c3O[C@@](C)(c3ccc(Cl)cc3F)O4)CC2)n(C[C@@H]2CCO2)c1-c1coc(C(=O)O)n1 [Compound C-20, 4-(2-((4-((S)-2-(4-chloro-2-fluorophenyl)-2-methylbenzo[d][1,3]dioxol-4-yl)piperidin-1-yl)methyl)-4-methyl-1-(((S)-oxetan-2-yl)methyl)-1H-imidazol-5-yl)oxazole-2-carboxylic acid] | > 30 | 5
6 | CCc1nc(CN2CCC(c3cccc4c3O[C@@](C)(c3ccc(Cl)cc3F)O4)CC2)n(C[C@H]2CCO2)c1-c1nc(C(=O)O)co1 [Compound C-7, 2-(2-((4-((S)-2-(4-chloro-2-fluorophenyl)-2-methylbenzo[d][1,3]dioxol-4-yl)piperidin-1-yl)methyl)-4-ethyl-1-(((R)-oxetan-2-yl)methyl)-1H-imidazol-5-yl)oxazole-4-carboxylic acid] | 0.03 | 51
7 | C[C@]1(c2ccc(Cl)cc2F)Oc2cccc(C3CCN(Cc4nc(C(F)(F)F)c(-c5nc(C(=O)O)co5)n4C[C@@H]4CCO4)CC3)c2O1 [Compound C-4, 2-(2-((4-((S)-2-(4-chloro-2-fluorophenyl)-2-methylbenzo[d][1,3]dioxol-4-yl)piperidin-1-yl)methyl)-1-(((S)-oxetan-2-yl)methyl)-4-(trifluoromethyl)-1H-imidazol-5-yl)oxazole-4-carboxylic acid] | > 30 | 1
8 | Cc1c(-c2nc(C(=O)O)co2)nc(CN2CCC(c3cccc4c3O[C@@](C)(c3ccc(Cl)cc3F)O4)CC2)n1C[C@@H]1CCO1 [Compound C-13, 2-(2-((4-((S)-2-(4-chloro-2-fluorophenyl)-2-methylbenzo[d][1,3]dioxol-4-yl)piperidin-1-yl)methyl)-5-methyl-1-(((S)-oxetan-2-yl)methyl)-1H-imidazol-4-yl)oxazole-4-carboxylic acid] | 1.28 | 42
9 | CCc1oc(-c2c(C)nc(CN3CCC(c4cccc5c4O[C@@](C)(c4ccc(Cl)cc4F)O5)CC3)n2C[C@@H]2CCO2)nc1C(=O)O [Compound C-10, 2-(2-((4-((S)-2-(4-chloro-2-fluorophenyl)-2-methylbenzo[d][1,3]dioxol-4-yl)piperidin-1-yl)methyl)-4-methyl-1-(((S)-oxetan-2-yl)methyl)-1H-imidazol-5-yl)-5-ethyloxazole-4-carboxylic acid] | > 30 | 7
10 | Cc1c(-c2cc(C(=O)O)n(C)n2)nc(CN2CCC(c3cccc4c3O[C@@](C)(c3ccc(Cl)cc3F)O4)CC2)n1C[C@@H]1CCO1 [Compound C-17, 3-(2-((4-((S)-2-(4-chloro-2-fluorophenyl)-2-methylbenzo[d][1,3]dioxol-4-yl)piperidin-1-yl)methyl)-5-methyl-1-(((S)-oxetan-2-yl)methyl)-1H-imidazol-4-yl)-1-methyl-1H-pyrazole-5-carboxylic acid] | > 30 | 6
11 | Cc1c(-c2ccc(C(=O)O)o2)nc(CN2CCC(c3cccc4c3O[C@@](C)(c3ccc(Cl)cc3F)O4)CC2)n1C[C@@H]1CCO1 [Compound C-24, 5-(2-((4-((S)-2-(4-chloro-2-fluorophenyl)-2-methylbenzo[d][1,3]dioxol-4-yl)piperidin-1-yl)methyl)-5-methyl-1-(((S)-oxetan-2-yl)methyl)-1H-imidazol-4-yl)furan-2-carboxylic acid] | 0.49 | 19
12 | Cc1oc(-c2nc(CN3CCC(c4cccc5c4O[C@@](C)(c4ccc(Cl)cc4F)O5)CC3)n(C[C@@H]3CCO3)c2C)nc1C(=O)O [Compound C-12, 2-(2-((4-((S)-2-(4-chloro-2-fluorophenyl)-2-methylbenzo[d][1,3]dioxol-4-yl)piperidin-1-yl)methyl)-5-methyl-1-(((S)-oxetan-2-yl)methyl)-1H-imidazol-4-yl)-5-methyloxazole-4-carboxylic acid] | > 30 | 45
13 | Cc1c(-c2coc(C(=O)O)n2)nc(CN2CCC(c3cccc4c3O[C@@](C)(c3ccc(Cl)cc3F)O4)CC2)n1C[C@@H]1CCO1 [Compound C-18, 4-(2-((4-((S)-2-(4-chloro-2-fluorophenyl)-2-methylbenzo[d][1,3]dioxol-4-yl)piperidin-1-yl)methyl)-5-methyl-1-(((S)-oxetan-2-yl)methyl)-1H-imidazol-4-yl)oxazole-2-carboxylic acid] | 2.38 | 86
14 | Cc1nc(CN2CCC(c3cccc4c3O[C@@](C)(c3ccc(Cl)cc3F)O4)CC2)n(C[C@@H]2CCO2)c1-c1nc(C(=O)O)c(C)o1 [Compound C-1, 2-(2-((4-((S)-2-(4-chloro-2-fluorophenyl)-2-methylbenzo[d][1,3]dioxol-4-yl)piperidin-1-yl)methyl)-4-methyl-1-(((S)-oxetan-2-yl)methyl)-1H-imidazol-5-yl)-5-methyloxazole-4-carboxylic acid] | > 30 | 8
15 | Cc1cc(-c2nc(CN3CCC(c4cccc5c4O[C@@](C)(c4ccc(Cl)cc4F)O5)CC3)n(C[C@@H]3CCO3)c2C)oc1C(=O)O [Compound C-19, 5-(2-((4-((S)-2-(4-chloro-2-fluorophenyl)-2-methylbenzo[d][1,3]dioxol-4-yl)piperidin-1-yl)methyl)-5-methyl-1-(((S)-oxetan-2-yl)methyl)-1H-imidazol-4-yl)-3-methylfuran-2-carboxylic acid] | > 30 | 34
